Literature values as cited in patent publication US7691423B2, “Method of treating inflammation disorders using extracts of passion fruit” (priority 2005, dated 2010).

Experiments:
[1] = test system: spontaneously hypertensive rat (SHR) cells; conditions: SHR cells in vitro

SMILES | Large dose acetylcholine-induced vascular contraction (vascular contraction) | NOLA-dependent spontaneous aortic ring contraction [1] | iNOS mRNA and the production of nitric oxide (iNOS)
O=c1ccc2cc(O)c(O)cc2o1 [esculetin] | inhibited |  | 
O=c1c(O)c(-c2ccc(O)cc2)oc2cc(O)cc(O)c12 [kaempferol] | inhibited | inhibit | 
O=c1c(O)c(-c2ccc(O)c(O)c2)oc2cc(O)cc(O)c12 [quercetin] | inhibited | inhibit | inhibit
